Measured values published in patent US5459256A, “Lipophilic, aminohydrolase-activated prodrugs” (priority 1991, dated 1995).
“Also recorded” adds a separate entry of the source.

Key:
CD4^+ ATH8 cells = assay: Toxicity on ATH8 target cells (% toxicity, dye exclusion); type: cell-based; settings: human
Description: (§1) HIV Cytopathic Effect Inhibition Assay.
(§2) The HIV cytopathic effect inhibition assay was performed as previously described. […] On day 8 in culture, the viable cells were counted by using the dye exclusion method. All compounds, including inactives, were evaluated a minimum of two times in separate experiments. Data reported in Table II are from representative tests. The % protection against the virus was determined by the following formula: 100 times [(the number of viable cells exposed to HIV-1 and cultured in the presence of the compound minus the number of viable cells exposed to HIV-1 and cultured in the absence of compound) divided by (the number of viable cells cultured alone minus the number of viable cells exposed to HIV-1 and cultured in the absence of the compound)]. The % toxicity of a compound on the target cells was determined by the following formula: 100 times [1 minus (the number of total viable cells cultured in the presence of the compound divided by the number of total viable cells cultured alone)]. Calculated percentages equal to or less than zero are expressed as 0%.

[1] = as above; type: cell-based; settings: human, ath8 cells, % Toxicity
Description: as §1, §2

HIV = settings: cited from earlier work
[2] = tested on: HIV-1/IIIB (CD4^+ ATH8 cells); assay: HIV cytopathic effect inhibition assay in ATH8 cells (% protection); type: cell-based; settings: for inhibition at 10 µM: Human immunodeficiency virus 1, IIIB, ATH-8, 192 h
Description: as §1
The HIV cytopathic effect inhibition assay was performed as previously described. (Mitsuya, H. & Broder, S. Proc. Nat. Acad. Sci. USA 1986, 83, 1911) Briefly, 200,000 target CD4^+ ATH8 cells were exposed to cell-free HIV-1/IIIB at a dose of 43 (or 1087 for compound 1g) TCID50 (50% tissue culture infectious dose) for 1 h, resuspended in 2 ml of fresh culture media containing interleukin 2, and cultured at 37° C. with or without test compounds in 5% CO2 -containing humidified air. On day 8 in culture, the viable cells were counted by using the dye exclusion method. All compounds, including inactives, were evaluated a minimum of two times in separate experiments. Data reported in Table II are from representative tests. The % protection against the virus was determined by the following formula: 100 times [(the number of viable cells exposed to HIV-1 and cultured in the presence of the compound minus the number of viable cells exposed to HIV-1 and cultured in the absence of compound) divided by (the number of viable cells cultured alone minus the number of viable cells exposed to HIV-1 and cultured in the absence of the compound)]. The % toxicity of a compound on the target cells was determined by the following formula: 100 times [1 minus (the number of total viable cells cultured in the presence of the compound divided by the number of total viable cells cultured alone)]. Calculated percentages equal to or less than zero are expressed as 0%.
^a ATH8 cells were exposed to HIV1/IIIB per cell for 1 hr and
cultured in the presence of various concentrations of each compound. On
day 8, the total viable cells were counted. Orders of numbers in the
column for concentrations correspond to the orders of numbers in other

CNc1ncnc2c1ncn2[C@@H]1O[C@H](CO)C[C@@H]1F [Compound 1f, N^6 -Methyl-9-(2'3'-dideoxy-2'-fluoro-β-D-arabinofuranosyl)adenine]
% Toxicity (CD4^+ ATH8 cells; 11520 min): 11%
% Toxicity (CD4^+ ATH8 cells; ath8 cells, 192 h, 5 µM): 3%
% Toxicity (CD4^+ ATH8 cells; ath8 cells, 192 h, 10 µM): 7%
cytotoxicity at 192 h, 20 µM [1]: 0%
activity against HIV in peripheral blood mononuclear cells (in words) (HIV): the activity of 1f against HIV in peripheral blood mononuclear cells was recently reported
% Protection ([2]; 10 μM, with dCF (2 μM), 11520 min): < 10%
anti-HIV activity in the presence of dCF (in words) ([2]; ATH8 cells, dCF added): protection was either abolished or greatly decreased; also recorded: can have activity abolished
anti-HIV activity (in words) ([2]; ATH8 cells, no additive): that activity was reduced relative to 1a; also recorded: reproducible, albeit unspectacular, activity; also recorded: only moderate anti-HIV activity
inhibition at 10 µM ([2]; 10 μM, no additive (Table IV experiment)): 13%
inhibition at 10 µM ([2]; 10 μM, with added ADA (0.7 U/ml)): 90%
